Laboratory results as given in patent US9662329B2, “Use of survivin antagonists in polyomavirus-related disease” (University of Pittsburgh—Of the Commonwealth System of …, priority 2012, dated 2017).
pEC50: −log10 of the molar value.

Columns and labels:
[1] = test system: MS-1; test: Cell Titer Glo dose-response study; assay type: cell-based, human; conditions: Homo sapiens, MS-1, read-out: EC50 concentrations for MCC cell lines, MS-1
Excerpt: (§1) Seven Merkel cell carcinoma cell lines: MKL-1, MKL-2, MS-1, UISO, MCC13, MCC26 and WaGa (kind gift of Jurgen Becker (Houben et al., Merkel cell polyomavirus-infected Merkel cell carcinoma cells require expression of viral T antigens. J Virol 84, 7064 (July, 2010); Ronan et al., Merkel cell carcinoma: in vitro and in vivo characteristics of a new cell line. J Am Acad Dermatol 29, 715 (November, 1993); Rosen et al., Establishment and characterization of a neuroendocrine skin carcinoma cell line. Lab Invest 56, 302 (March, 1987)); NCI-H69 small cell lung cancer cell line (ATCC); 293 human embryonic kidney cells (ATCC); U2OS osteosarcoma cell line (kind gift of Ole Gjoerup); BJhTERT immortalized foreskin fibroblast cell line (kind gift of Ole Gjoerup); and BJ primary foreskin fibroblasts (ATCC) were used to screen and evaluate the small molecules examined in this study (Houben et al., J Virol 84, 7064 (July, 2010); Ronan et al., J Am Acad Dermatol 29, 715 (November, 1993); Rosen et al., Lab Invest 56, 302 (March, 1987)). The Merkel cell lines and NCI-H69 were grown in RPMI 1640 supplemented with 10% fetal calf serum, penicillin and streptomycin at 37° C. in humidified air containing 5% CO2. The remaining cell lines were grown in DMEM supplemented with 10% fetal calf serum.
(§2) For EC50 measurements, dose-response curves were established for 17 drugs obtained individually in bulk stocks. Iodoacetamide (I1149), sanguarine chloride (S5890), NSC95397 (N1786), chelerythrine chloride (C2932), calmidazolium chloride (C3930), tetraethylthiuram disulfide (T1132), bay 11-7085 (B5681), quinacrine dihydro chloride (Q3251), ellipticine (E3380), amsacrine hydrochloride (A9809) and nutlin-3 (N6287) were purchased from Sigma Aldrich, USA.
(§3) Compounds that met the selection criteria <10% cell survival were purchased or obtained in bulk from NCI/NIH Developmental Therapeutics Program. Serial drug dilutions from 10^−4 M to 10^−9 M were used on MCC and non-MCC cell lines. Cells were seeded into 384-well plates at 6000 cells in 50 μl of medium per well. After 24 hours, 25 μl of 3× drugs were added at increasing concentration to each well. Cell viability was then measured using Cell Titer Glo (Promega) kit following manufacturer's instructions as described previously. Each drug concentration was tested in triplicate for each cell line and experiments were repeated twice. EC50 doses for the drugs were calculated using a four parameter logistic equation (GraphPad Prism).

[2] = test system: MKL-1; test: Cell Titer Glo dose-response study; assay type: cell-based, human; conditions: Homo sapiens, MKL-1, read-out: EC50 concentrations for MCC cell lines, MKL-1
Excerpt: as §1, §2, §3

[3] = test system: MKL-2; test: Cell Titer Glo dose-response study; assay type: cell-based, human; conditions: Homo sapiens, read-out: EC50 concentrations for MCC cell lines, MKL-2
Excerpt: as §1, §2, §3

[4] = test system: WaGa; test: Cell Titer Glo dose-response study; assay type: cell-based, human; conditions: Homo sapiens, read-out: EC50 concentrations for MCC cell lines, WaGa
Excerpt: as §1, §2, §3

[5] = test system: UISO; test: Cell Titer Glo dose-response study; assay type: cell-based, human; conditions: Homo sapiens, read-out: EC50 concentrations for MCC cell lines, UISO
Excerpt: as §1, §2, §3

[6] = test system: human MKL-1 MCC xenografts
Method: Compounds were dissolved in sterile 0.9% saline solution for administration to animals.
Six-week-old female triple immune-deficient NSG (Nod-SCID gamma) mice (Jackson Laboratory) were maintained in a specific pathogen-free environment.
MCC cells were checked for viability >90% by trypan blue staining, resuspended in PBS (2×10^7 cells in 100 μl) and inoculated subcutaneously into the right flank of mice.
All treatments were delivered for three consecutive weeks. […] YM-155 (2 mg/kg) was given intraperitoneally on five consecutive days, followed by a two-day treatment free interval.
Two-tailed paired Student's t test was used to analyze statistical differences in qRT-PCR results. Mouse survival curves were estimated using the Kaplan-Meier product-limit method and were compared using the log-rank test (GraphPad Software, La Jolla, Calif.). A piecewise linear hierarchical Bayesian model (Zhao et al., Bayesian hierarchical changepoint methods in modeling the tumor growth profiles in xenograft experiments. Clinical Cancer Res 17, 1057 (Mar. 1, 2011)) was used to characterize differences in tumor volumes and growth between treatments.
Cells of Merkel cell polyomavirus (+) carcinoma cell lines MKL-1, MS-1, WaGa, and MKL-2 were checked for viability >90% by trypan blue staining, resuspended in PBS (2×10^7 cells in 100 μl) and inoculated subcutaneously into the right flank of mice.
YM-155 was given intraperitoneally on five consecutive days, followed by a two-day treatment free interval. For YM155 this treatment continued for three weeks or until mice were euthanized. Mice were euthanized upon showing a tumor having a diameter of 20 mm, or upon a showing of significant distress (>20% weight loss or when they became moribund). Caliper measurements of the longest perpendicular tumor diameters were performed every other day and tumor volumes were calculated using the formula: (width)^2×(length/2). Survival was defined as time from the first day of treatment until death/sacrifice.

[7] = test system: MKL-1 cells; test: Immunoblotting for cPARP, cCaspase 3 and LC3; assay type: cell-based, human; conditions: 100 nM, 48 hours
[8] = test system: MCC cell lines; test: cells; conditions: Homo sapiens, read-out: EC50, active in vitro at low doses
Method: as §3, with “Serial” for “Compounds that met the selection criteria <10% cell survival were purchased or obtained in bulk from NCI/NIH Developmental Therapeutics Program. Serial”

[9] = Example 2, 1 mg/kg for three weeks
[10] = three weeks treatment, bortezomib 1 mg/kg twice weekly, YM155 2 mg/kg 5 times weekly

## CC(C)C[C@H](NC(=O)[C@H](Cc1ccccc1)NC(=O)c1cnccn1)B(O)O [Bortezomib]
[1]
  pEC50: 8.70
[2]
  pEC50: 7.89
[3]
  pEC50: 8.30
[4]
  pEC50: 9.00
[5]
  pEC50: 8.52
[6]; [9]
  survival compared to saline: survived as long as those receiving saline
  time after treatment began at which the last animal died: approximately one month
[6]; bortezomib 1 mg/kg twice weekly, YM155 2 mg/kg 5 times weekly
  tolerability / adverse effects in mice: associated with mouse lethargy and weight loss
[6]; [10]
  mice dying during treatment (up to day 19): 67%
  xenograft tumor growth / progression during treatment: did not significantly affect MCC tumor progression or volume
[7]
  apoptosis measured by caspase 3 and PARP cleavage: activated PARP and caspase cleavage
[8]
  pEC50: 7.88 to 8.89
